ChEMBL document CHEMBL1124195, “Substituted benzamides with conformationally restricted side chains. 2. Indolizidine derivatives as central dopamine receptor antagonists” (J Med Chem, 1988)
Active and inactive are the calls of the source. The rule behind the calls is not given here.

Key:
[1] = test system: Mus musculus; assay: Evaluated for the antagonism of apomorphine-induced climbing behavior in mice (sc); format: functional
[2] = test system: Rattus norvegicus; assay: Evaluated for lowest active dose (LAD) for (gastric prokinetic activity) stimulation of intragastric pressure (IGP) in rats (sc); Inactive (0.5-10 mg/kg); format: functional, organism-based
[3] = test system: Rattus norvegicus; assay: Evaluated for lowest active dose (LAD) for (gastric prokinetic activity) stimulation of intragastric pressure (IGP) in rats (sc); format: functional
[4] = test system: Rattus norvegicus; assay: Effective concentration for inhibition of amphetamine-induced locomotor activity in rats 4 hr after dosing administered intraperitoneally; format: functional; conditions: ip
[5] = test system: Rattus norvegicus; assay: Compound was tested for inducing catalepsy 4 hr after dose administered intraperitoneally; format: functional; conditions: ip
[6] = target: D(1A) dopamine receptor (Rattus norvegicus, UniProt P18901); assay: Binding affinity against Dopamine receptor D1 at 10e-3 M concentration using cis-[3H]flupenthixol in rat striatal tissue
D(1A) dopamine receptor, sequence (P18901 whole entry): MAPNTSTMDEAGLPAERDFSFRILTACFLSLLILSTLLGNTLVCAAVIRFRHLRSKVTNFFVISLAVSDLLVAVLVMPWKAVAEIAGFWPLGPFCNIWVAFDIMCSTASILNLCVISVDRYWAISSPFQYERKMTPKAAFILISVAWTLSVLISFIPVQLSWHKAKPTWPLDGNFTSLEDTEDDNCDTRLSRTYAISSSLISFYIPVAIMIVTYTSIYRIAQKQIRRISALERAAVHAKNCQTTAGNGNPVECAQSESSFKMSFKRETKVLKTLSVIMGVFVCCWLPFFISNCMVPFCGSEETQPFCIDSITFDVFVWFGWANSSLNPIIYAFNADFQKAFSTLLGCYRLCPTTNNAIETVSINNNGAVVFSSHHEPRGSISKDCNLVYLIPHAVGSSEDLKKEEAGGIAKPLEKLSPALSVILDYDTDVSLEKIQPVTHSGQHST

[7] = target: D(2) dopamine receptor (Rattus norvegicus, UniProt P61169); assay: Binding affinity against Dopamine receptor D2 at 10e-3 M concentration using [3H]spiperone in rat striatal tissue
D(2) dopamine receptor, sequence (P61169 whole entry): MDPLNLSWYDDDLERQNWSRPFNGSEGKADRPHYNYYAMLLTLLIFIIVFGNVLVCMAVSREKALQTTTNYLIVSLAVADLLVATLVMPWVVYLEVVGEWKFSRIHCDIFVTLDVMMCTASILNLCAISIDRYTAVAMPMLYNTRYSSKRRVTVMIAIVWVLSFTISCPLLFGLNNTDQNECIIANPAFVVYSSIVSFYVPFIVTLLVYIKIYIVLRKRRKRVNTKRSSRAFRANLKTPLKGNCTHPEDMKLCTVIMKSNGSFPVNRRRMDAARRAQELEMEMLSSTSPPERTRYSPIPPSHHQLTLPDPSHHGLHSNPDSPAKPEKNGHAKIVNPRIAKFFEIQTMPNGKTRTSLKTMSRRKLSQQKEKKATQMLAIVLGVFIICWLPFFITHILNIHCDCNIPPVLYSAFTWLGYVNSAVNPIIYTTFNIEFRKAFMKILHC

Row | SMILES | ED50 [1] [mg/kg] | LAD [2] | other results
1 | COc1cc(N)c(Cl)cc1C(=O)NC1CCN2CC(c3ccc(F)cc3)CC2C1 (centres undefined) | 0.015 |  | 
2 | COc1cc(N)c(Cl)cc1C(=O)NC1CCN2CC(c3ccccc3)(c3ccccc3)CC2C1 (centres undefined) | > 1 | inactive | 
3 | COc1cc(N)c(Cl)cc1C(=O)NC1CCN(Cc2ccccc2)CC1 [CLEBOPRIDE] | 0.037 |  | LAD [3]: 1 mg/kg
4 | COc1cc(N)c(Cl)cc1C(=O)NC1CCN2C[C@H](c3ccccc3)CCC2C1 (some centres undefined) | > 1 | inactive | 
5 | COc1cc(N)c(Cl)cc1C(=O)NC1CCN2CC(c3ccccc3F)CC2C1 (centres undefined) | 0.03 |  | 
6 | COc1cc(N)c(Cl)cc1C(=O)NC1CC(C)N2CC(c3ccccc3)CC2C1 (centres undefined) | 0.4 | inactive | 
7 | COc1cc(N)c(Cl)cc1C(=O)NC1CCN2CC(C)(c3ccccc3)CC2C1 (centres undefined) | 0.078 | inactive | ED50 [4]: 0.02 mg/kg; ED50 [5]: 3.4 mg/kg; Ki [6]: > 10000 nM; Ki [7]: 250 nM
8 | COc1cc(N)c(Cl)cc1C(=O)NC1CCN2C[C@@H](c3ccccc3)CCC2C1 (some centres undefined) | > 1 | inactive | 
9 | COc1cc(N)c(Cl)cc1C(=O)NC1CCN2C[C@@H](c3ccccc3)CC2C1 (some centres undefined) | 0.024 | inactive | 
10 | CCN(CC)CCNC(=O)c1cc(Cl)c(N)cc1OC [METOCLOPRAMIDE] | 0.75 |  | LAD [3]: 1 mg/kg
11 | COc1cc(N)c(Cl)cc1C(=O)NC1CCN2C[C@H](c3ccccc3)CC2C1 (some centres undefined) | > 3 |  | LAD [3]: 1 mg/kg
